SMILES	melting point [°C]
CCOc1ccc(S(=O)(=O)N(CC(=O)N/N=C2/C(=O)N(C)c3ccccc32)c2ccc(C)cc2)cc1 [Example 20, 4-ethoxy-N-{2-[2-(1-methyl-2-oxo-1,2-dihydro-3H-indol-3-ylidene)hydrazino]-2-oxoethyl}-N-(4-methylphenyl)benzenesulfonamide]	109 to 110
CCOc1ccc(S(=O)(=O)N(CC(=O)N/N=C(/C)c2ccccc2O)c2ccc(C)cc2)cc1 [Example 22, 4-ethoxy-N-(2-{2-[1-(2-hydroxyphenyl)ethylidene]hydrazino}-2-oxoethyl)-N-(4-methylphenyl)benzenesulfonamide]	199 to 200
CCCc1ccc(S(=O)(=O)N(CC(=O)N/N=C2/C(=O)Nc3ccccc32)c2ccc(C)cc2)cc1 [Example 29, N-(4-methylphenyl)-N-{2-oxo-2-[(2E)-2-(2-oxo-12-dihydro-3H-indol-3-ylidene)hydrazino]ethyl}-4-propylbenzenesulfonamide]	198 to 199
CCCCOc1ccc(S(=O)(=O)N(CC(=O)N/N=C2/C(=O)Nc3ccccc32)c2ccc(C)cc2)cc1 [Example 30, 4-Butoxy-N-(4-methylphenyl)-N-{2-oxo-2-[(2E)-2-(2-oxo-1.2-dihydro-3H-indol-3-ylidene)hydrazino]ethyl}benzenesulfonamide]	111 to 112

More lines, now with the values ahead:

melting point [°C]	SMILES
194 to 195	CC(C)(C)c1ccc(S(=O)(=O)N(CC(=O)N/N=C2/C(=O)Nc3ccccc32)c2ccc(Cl)cc2)cc1 [Example 26, 4-tert-Butyl-N-(4-chlorophenyl)-N-{2-oxo-2-[(2E)-2-(2-oxo-1,2-dihydro-3H-indol-3-ylidene)hydrazino]ethyl}benzenesulfonamide]
132 to 133	COc1ccc(S(=O)(=O)N(CC(=O)N/N=C2/C(=O)Nc3ccccc32)c2ccc(Cl)cc2)cc1OC [Example 27, N-(4-chlorophenyl)-3,4-dimethoxy-N-{2-oxo-2-[(2E)-2-(2-oxo-1,2-dihydro-3H-indol-3-ylidene)hydrazino]ethyl}benzenesulfonamide]
139 to 140	Cc1ccc(N(CC(=O)N/N=C2/C(=O)Nc3ccccc32)S(=O)(=O)c2ccc(C(C)(C)C)cc2)cc1 [Example 28, 4-tert-Butyl-N-(4-methylphenyl)-N-{2-oxo-2-[(2E)-2-(2-oxo-1,2-dihydro-3H-indol-3-ylidene)hydrazino]ethyl}benzenesulfonamide]

From patent US7312358B2, “Pharmaceutically active sulfanilide derivatives” (Laboratoires Serono SA, priority 2000, dated 2007)
